Consider 8 molecules from publication PMC10458514, “Structure–Activity Relationship Studies on 6-Chloro-1-phenylbenzazepines Leads to the Identification of a New Dopamine D1 Receptor Antagonist” (Molecules, 2023).

Data set [1] concerns the target T1, D1R (Homo sapiens, UniProt P21728).
T1 construct: Eurofins Discover X
The experiment in a line: D1R cAMP functional assay, antagonist format (Eurofins DiscoverX HitHunter). To be noted: antagonist mode; for Max Response, antagonist format: agonist challenge at EC80, in % (unit assumed). The format is cell-based.
Protocol: (§1) In the agonist format, cells were first incubated with sample to induce a response. Then, the media was aspirated from the cells and replaced with 15 μL 2:1 HBSS/10 mM Hepes: cAMP XS + Ab reagent. Sample stocks were diluted to generate 4X sample in assay buffer. […] The final assay concentration used was 1%. In antagonist mode, the cells were pre-incubated with a sample followed by agonist challenge at the EC80 concentration. The media was aspirated from cells and replaced with 10 μL 2:1 HBSS/10 mM Hepes: cAMP XS + Ab reagent. […] For agonist and antagonist assays, signal detection was performed as follows. […] This was followed by incubation with 20 μL cAMP XS + EA reagent for 3 h at room temperature. The microplates were read following signal generation with a PerkinElmer Envision™ instrument for chemiluminescent signal detection.

Data set [2] addresses T1, D1R. Put plainly: D1R cAMP functional assay, agonist format (Eurofins DiscoverX HitHunter). Type of data set: cell-based. To be noted: agonist mode.
Protocol: as §1
In data set [3] the target is T2, D1R (dopamine D1 receptor) (Homo sapiens, UniProt P21728). The experiment in a line: biochemical. To be noted: [3H]SCH23390 radioligand, triplicate, na = not active (<50% inhibition in a primary assay when tested at 10 µM).
Data set [4] addresses T3, D5R (dopamine D5 receptor) (Homo sapiens, UniProt P21918). The experiment in a line: biochemical. To be noted: [3H]SCH23390 radioligand, triplicate, na = not active (<50% inhibition in a primary assay when tested at 10 µM).
Data set [5] deals with T2, D1R (dopamine D1 receptor). To be noted: for Selectivity D5/D1: ratio of Ki D5R to Ki D1R.
In data set [6] the target is T1, D1R. To be noted: cited from earlier work.
The target in the next data set is D5R. To be noted: cited from earlier work.
The target in data set [7] is T3, D5R (dopamine D5 receptor). To be noted: read-out: Ki D5R; [3H]SCH23390 radioligand; triplicate; na = not active (<50% inhibition in a primary assay when tested at 10 µM).

Values joined by “and” are separate entries in the source; they are usually repeats but may differ in a detail not shown here. Equal values may be shown once. Read-outs that look alike come from different tables or passages of the source.

T3 sequence (P21918 whole entry): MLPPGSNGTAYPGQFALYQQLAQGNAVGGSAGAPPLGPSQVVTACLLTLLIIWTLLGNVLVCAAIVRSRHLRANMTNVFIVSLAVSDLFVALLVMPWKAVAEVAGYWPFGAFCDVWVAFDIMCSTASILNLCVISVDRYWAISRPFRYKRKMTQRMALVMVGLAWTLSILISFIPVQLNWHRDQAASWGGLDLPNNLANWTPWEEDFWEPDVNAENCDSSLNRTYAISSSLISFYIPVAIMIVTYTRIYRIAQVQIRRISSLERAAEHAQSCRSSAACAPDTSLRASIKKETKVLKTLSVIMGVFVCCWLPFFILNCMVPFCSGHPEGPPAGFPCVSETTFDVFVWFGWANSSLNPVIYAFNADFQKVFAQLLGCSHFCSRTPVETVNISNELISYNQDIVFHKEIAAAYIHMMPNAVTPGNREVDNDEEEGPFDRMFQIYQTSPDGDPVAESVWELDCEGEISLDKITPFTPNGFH
T1 sequence (P21728 whole entry): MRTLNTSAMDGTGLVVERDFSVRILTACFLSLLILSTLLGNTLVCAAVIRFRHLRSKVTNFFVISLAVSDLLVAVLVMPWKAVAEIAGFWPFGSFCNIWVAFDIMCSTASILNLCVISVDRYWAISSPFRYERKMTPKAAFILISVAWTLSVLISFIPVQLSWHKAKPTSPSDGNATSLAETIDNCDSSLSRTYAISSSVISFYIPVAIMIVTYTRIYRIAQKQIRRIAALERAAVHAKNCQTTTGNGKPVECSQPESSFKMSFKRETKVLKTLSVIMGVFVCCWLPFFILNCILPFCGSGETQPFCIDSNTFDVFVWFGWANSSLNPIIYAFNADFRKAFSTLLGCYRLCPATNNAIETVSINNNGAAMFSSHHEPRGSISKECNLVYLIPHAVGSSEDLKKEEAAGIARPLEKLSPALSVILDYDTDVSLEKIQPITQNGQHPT
T2 sequence (P21728 whole entry): as above

In turn, `CN1CCc2c(ccc(O)c2Cl)C(c2ccccc2)C1` (stereo not shown) [Compound 15a, 6-chloro-3-methyl-1-phenyl-2,3,4,5-tetrahydro-1H-benzo[d]azepin-7-ol] showed a melting point of 143.5 to 145.1 °C. The “Max Response, antagonist format” value on D1R [1] amounted to 66.12. In addition, the IC50 at D1R [1] (agonist challenge at EC80, read-out: RC50 (IC50), antagonist format) came to 0.13 µM. Besides, on D1R [2], the “RC50 (EC50), agonist format” value is given as “No D1R agonistic activity”. Besides, at D1R [2] (in % (unit assumed)), the “Max Response, agonist format” value was found to be 17.22. Also, the EC50 on D1R [2] (read-out: RC50 (EC50), agonist format) is over 10 µM. In addition, the Ki in data set [3] was 0.03 µM and 0.0301 µM. This molecule also registered a Ki in [4] of 0.187 µM. Also, the “Selectivity D5/D1” value in data set [5] is 6 and 6.2.
Molecule `CN1CCc2c(cc(N)c(O)c2Cl)C(c2ccccc2)C1` (stereo not shown) [Compound 17a, 8-amino-6-chloro-3-methyl-1-phenyl-2,3,4,5-tetrahydro-1H-benzo[d]azepin-7-ol] showed a melting point of 137 to 138.9 °C. Affinity in data set [3] was put at a Ki of 0.21 µM. Further, the Ki in [4] was found to be 0.27 ± 0.0084 µM. Further, the “Selectivity D5/D1” value in data set [5] was 1.3.
For the molecule `Cc1cccc(C2CN(C)CCc3c2cc(N)c(O)c3Cl)c1` (stereo not shown) [Compound 17b, 8-amino-6-chloro-3-methyl-1-(m-tolyl)-2,3,4,5-tetrahydro-1H-benzo[d]azepin-7-ol], the melting point lay within 134.8 to 136 °C. Besides, the Ki in [3] was 0.072 µM and 0.0719 µM. Further, affinity in [4] was put at a Ki of 0.146 ± 0.0058 µM. Moreover, in data set [5], the “Selectivity D5/D1” value amounted to 2.0.
The molecule `CCCC(=O)Nc1cc2c(c(Cl)c1O)CCN(C)CC2c1cccc(C)c1` (stereo not shown) [Compound 19b, N-(9-chloro-8-hydroxy-3-methyl-5-(m-tolyl)-2,3,4,5-tetrahydro-1H-benzo[d]azepin-7-yl)butyramide] returned a melting point of 156.2 to 157.9 °C. Also, the affinity in data set [3] corresponds to a Ki of 0.634 ± 0.0125 µM. This molecule also displayed an inhibition constant (Ki) in [4] of 2.96 ± 0.0296 µM. The “Selectivity D5/D1” value in data set [5] was 4.7.
`Cc1cccc(C2CNCCc3c2cc([N+](=O)[O-])c(O)c3Cl)c1` (stereo not shown) [Compound 24b, 6-chloro-8-nitro-1-(m-tolyl)-2,3,4,5-tetrahydro-1H-benzo[d]azepin-7-ol] returned a melting point of 188.9 to 191.2 °C. Besides, the Ki in [3] is 0.038 µM and 0.0381 µM. The inhibition constant Ki in [4] is 0.0979 ± 0.0036 µM. Further, the “Selectivity D5/D1” value in data set [5] is 2.6.
As for `CN1CCc2cc(Cl)c(O)cc2[C@H]2c3ccccc3CC[C@@H]21` [SCH 39166, reference compound], the “Max Response, antagonist format” value at D1R [1] is reported as 102.24.
For `C=CCN1CCc2c(cc(O)c(O)c2Cl)C(c2cccc(C)c2)C1` (stereo not shown) [SKF 83822], the Ki on D1R [6] was 0.0002 µM; at D5R it was 0.0003 µM.
On to “N-(9-chloro-8-hydroxy-3-methyl-5-phenyl-2,3,4,5-tetrahydro-1H-benzo[d]azepin-7-yl)methanesulfonamide [Compound 22]”, for which the Ki in [7] was 0.166 ± 0.0068 µM; in data set [5] (read-out: Ki D1R, [3H]SCH23390 radioligand, triplicate, na = not active (<50% inhibition in a primary assay when tested at 10 µM)), 0.113 µM and 0.114 µM. Besides, the “Selectivity D5/D1” value in [5] is 1.5.

By IC50 is commonly meant the concentration needed to halve the response being measured. As a reminder, the melting point is the temperature, or range, at which the solid turns liquid. Broadly, the EC50 is the concentration at which the effect is half-maximal. As usually defined, the Ki is a dissociation constant, usually derived from enzyme kinetics or from competition with a known ligand.
